Source: patent US12534501B2, “Targeting deregulated Wnt signaling in cancer using stabilized alpha-helices of BCL-9” (Dana-Farber Cancer Institute, Inc., priority 2011, dated 2026)
Numbered stars: 1 amine (or outer) side, 2 acyl side, 3 side chain; on linkers, the order of the positions; unused ones are H or OH. Bridge positions count the residues as written; N and C are the ends. Square brackets hold non-standard residues; d marks the D form. Peptide text beside a SMILES is read from it. ξ: configuration not given here. ξαMeNle(6-ylidene) = CC(CCCC=[*:3])(N[*:1])C(=O)[*:2]; Nle = CCCC[C@H](N)C(=O)O

How the values were obtained:
[1] = test system: Wnt target genes in MM1S cells; experiment: qRT-PCR of Wnt/β-catenin target genes; type: cell-based; details: MM1S (FIG. 19A), 10 μM
Description: (§1) To measure the effects of vehicle, SAH-BCL9B, and SAH-BCL9MUT on the expression of Wnt/β-catenin target genes, including VEGF, in Colo320 (FIG. 18) and MM1S (FIG. 19) cell lines, quantitative PCR (qRT-PCR) analysis was performed. RNA was extracted with TRIzol Reagent (Invitrogen) according to the manufacturer's protocol. Total RNA (2 μg) was reverse transcribed (SuperScript VILO cDNA synthesis kit, Invitrogen) and qPCR was performed using an Applied Biosynthesis 7500 Real-time PCR system. PCR primers were designed as below: […]
(§2) Analysis of target genes was conducted in quadruplicate using POWER SYBR Green Master Mix (Applied Biosystems) as previously described (M. Mani et al., Cancer Res 69, 7577 (2009)). Transcripts levels were normalized to β-actin expression. These experiments were repeated three times.

[2] = test system: Wnt target genes in Colo320 cells; experiment: qPCR of Wnt/β-catenin target genes; type: cell-based
Description: RNA was extracted with TRIzol Reagent (Invitrogen) according to the manufacturer's protocol. Total RNA (2 μg) was reverse transcribed (SuperScript VILO cDNA synthesis kit, Invitrogen) and qPCR was performed using an Applied Biosynthesis 7500 Real-time PCR system. Analysis of target genes was conducted in quadruplicate using POWER SYBR Green Master Mix (Applied Biosystems) with previously described primer sets. Transcripts levels were normalized to β-actin expression. These experiments were repeated three times. See results in FIG. 2B, FIG. 2C.
as §1, §2

[3] = test system: Wnt target genes in DLD1 colon cancer cell line; experiment: Affymetrix gene expression profiling / GSEA and qRT-PCR validation; type: cell-based
Description: RNA from SAH-BCL9B and vehicle (0.1% DMSO)-treated cells were run on an Affymetrix U133A 2.0 array chip as described (Mollering et al, Nature 462, 182-8 (2009). Statistical analyses were performed in R (http://www.r-project.org). The array data were normalized with rma method (Bolstad, B. M., et al. Bioinformatics 19, 185-93 (2003)) as implemented in the Affy package (http://www.bioconductor.org/packages/2.6/bioc/html/affy.html) and differential expression calculated with empirical Bayes shrinkage of the standard errors toward a common value with LIMMA (http://www.bioconductor.org/packages/2.6/bioc/html/limma.html) (McCarthy, D. J. & Smyth, G. K. Bioinformatics 25, 765-71 (2009); Smyth, G. K. Stat Appl Genet Mol Biol 3, Article3 (2004)). Gene set enrichment analysis was performed using GSEA software (version 2.06) and mSigDB (version 2.5) (Subramanian, A. et al. Proc Natl Acad Sci USA 102, 15545-50 (2005)).
To further investigate the specificity of SAH-BCL9B in blocking Wnt transcriptional activity, comparative genome-wide expression analyses of Wnt target genes in the DLD1 colon cancer cell line, for which a Wnt transcription pathway signature has been described (L. G. Van der Flier et al., Gastroenterology 132, 628 (2007)), was performed. RNA from triplicate SAH-BCL9B- and vehicle-treated DLD1 samples (10 μM each for 12 hours) was isolated for gene expression profiling analyses. Affymetrix Human U133 Plus 2.0 arrays were processed using the function of the affy Bioconductor package (URL http://www.R-project.org.). Gene sets were compiled from Van der Flier et al. and gene set enrichment and statistical analyses performed using GSEA software (http://www.broad.mit.edu/GSEA) and a two-tailed t-test, respectively. Microarray data has been deposited in the Gene Expression Omnibus (http://www.ncbi.nlm.nih.gov/geo) and comply with MIAME annotation standards. […]

Colo320 cells [4] = experiment: Cell viability, CellTiter-Glo; type: cell-based; details: 72 h, 5 μM
Description: (§3) Cell proliferation assays were performed as described (Sukhdeo, K. et al. Proc Natl Acad Sci USA 104, 7516-21 (2007)). Cell viability was measured using the CellTiter-Glo assay (Promega) according to the manufacturer's instructions. Apoptosis was evaluated by activated caspase-3 and PARP western blotting. See results in FIG. 3A-FIG. 3F, FIG. 13, and FIG. 20.

MM1S cells = experiment: Cell viability, CellTiter-Glo; type: cell-based; details: 72 h, 5 μM
Description: as §3

HUVEC = experiment: In vitro angiogenesis assay (capillary tube formation); type: cell-based, human; details: HUVEC with supernatants of Colo320 or MM1S cells treated at 5 μM for 24 h; read at 5 h
Description: Angiogenesis was evaluated as previously described (Mani, M. et al. Cancer Res 69, 7577-86 (2009)) using an in vitro angiogenesis assay kit (Millipore). For capillary tube formation analysis, HUVEC were cultured on polymerized matrix gel and exposed to supernatant media collected from Colo320 or MM1S cells treated with vehicle (0.5% DMSO), SAH-BCL9B peptides (5 μM) for 24 h. The number of capillary tubes formed after 5 h treatment at 37° C. was determined by counting 5 randomly selected fields at 40× magnification, according to manufacture's instructions. HUVEC cultured in VEGF media and VEGF-free media were used as positive and negative controls, respectively. Cellular invasion assays were performed using Matrigel Boyden chambers (BD Biosciences) as described (Mani, M. et al. Cancer Res 69, 7577-86 (2009)). The reported data represent the average of three independent experiments performed in triplicate. See results in FIG. 3H-FIG. 3I.

Colo320 cells [5] = experiment: Cellular uptake of FITC-labelled peptides; type: cell-based; details: FITC derivatives
Description: For fluorescence microscopy evaluation, cells were prepared using a cytocentrifuge (Thermo Shandon) and fixed as previously described (Sukhdeo, K. et al. Proc Natl Acad Sci USA 104, 7516-21 (2007); Mani, M. et al. Cancer Res 69, 7577-86 (2009)). Anti-β-catenin and rhodamine-conjugated secondary antibodies (5 μg/ml; Southern Biotechnology) were employed. Images were obtained using a BioRad Radiance 2000 laser scanning confocal microscope. Cell permeability of SAH-BCL9B and SAH-BCL9B(R359E) were determined by fluorescence microscopy of cells treated with FITC-derivatives of the above described stapled peptides and also by blotting/fluorescence scan, performed as previously described (Pitter, K. et al Methods Enzymol, 446, (2008), 387-408; Walensky, L. D. et al. Science 305, 1466-70 (2004). See results in FIG. 1E, FIG. 7.

For `CCCC[C@H](NC(=O)[C@H](CCCNC(=N)N)NC(=O)[C@H](CCC(N)=O)NC(=O)[C@@H](NC(=O)C1(C)CCCC=CCCCC(C)(NC(=O)[C@H](CC(C)C)NC(=O)[C@H](CO)NC(=O)[C@H](CCCNC(=N)N)NC(=O)[C@H](CCC(=O)O)NC(=O)[C@H](CCCNC(=N)N)NC(=O)[C@H](Cc2c[nH]cn2)NC(=O)[C@H](CCC(=O)O)NC(=O)[C@H](CC(C)C)NC(=O)[C@H](CCC(N)=O)NC(=O)[C@H](CCC(=O)O)NC(=O)[C@H](CCC(N)=O)NC(=O)[C@H](CO)NC(=O)[C@H](CC(C)C)NC(C)=O)C(=O)N[C@@H]([C@@H](C)O)C(=O)N[C@@H](CC(C)C)C(=O)N[C@@H](CCCNC(=N)N)C(=O)N1)[C@@H](C)CC)C(=O)N[C@@H](CC(C)C)C(=O)N[C@@H](Cc1ccccc1)C(N)=O` (some centres unmarked) [SAH-BCL9B] (Ac-LSQEQLEHRERSL[ξαMeNle(6-ylidene)]TLR[ξαMeNle(6-ylidene)]IQR[Nle]LF-NH2; staple 14-18), the “mRNA levels of VEGF, c-MYC, LGR5, LEF1, and AXIN2” value [1] was “dose-responsively reduced”, the “mRNA levels of VEGF, c-Myc, and Axin2” value ([2]; qPCR) was “significantly reduced” and the “Actin expression (non-Wnt pathway target gene)” value ([2]; qRT-PCR, Colo320) was “no change”. The “mRNA levels of VEGF, c-MYC, LGR5, LEF1, and AXIN2” value ([2]; qRT-PCR, Colo320 (FIG. 18A), normalized to β-actin) was “dose-responsively reduced”, the VEGF-A expression ([3]; DLD1) was “downregulated” and the Axin2 expression ([3]; DLD1, 10 μM, 12 hours) was “among the most down-regulated genes”. For the same compound, the “GSEA correlation of down-regulated genes with dominant-negative TCF1 and TCF4” value ([3]; DLD1, 10 μM, 12 hours, adenoma and carcinoma signatures) was “strong and statistically significant correlation”, the viability (Colo320 cells [4]) was “no effect” and the viability (MM1S cells) was “no effect”. The capillary tube formation (HUVEC) was “reduced capillary tube formation”.

“SAH-BCL9B(R359E): SEQ ID NO: 7: LSQEQLEHEERSLXTLRXIQRBLF; reverse polarity point mutant, negative control of SAH-BCL9B” was tested, and the cellular uptake (Colo320 cells [5]) was “similar”.
